Reference: PMC3583384 (Journal of medicinal chemistry, 2012)
“Also recorded” adds a separate entry of the source. Read-outs that look alike come from different tables or passages of the source.

Columns and labels:
patients = settings: clinical trial, twice daily dosing; cited from earlier work
[1] = system: rats with normal iron stores; settings: for BUN / SCr: rats po 237 µmol/kg b.i.d. × 7 d (6: euthanized day 8)
iron overloaded primates [2] = settings: primates po 75 µmol/kg, monosodium salt
iron overloaded primates [3] = settings: cited from earlier work
rats = settings: cited from earlier work
[4] = system: non-iron-overloaded bile duct-cannulated rats; settings: rats po 150 µmol/kg, cited from earlier work; for relative percentages of the iron excreted in the bile and urine [bile/urine]: Cremophor RH-40/water
[5] = cited from earlier work
[6] = Ligand-plasma binding, rodent plasma; format: in vitro ADME; settings: 37 °C, 4 h, 3,000 MWCO filter
[7] = Ligand-plasma binding, primate plasma; format: in vitro ADME; settings: 37 °C, 4 h, 3,000 MWCO filter

SMILES: C[C@]1(C(=O)[O-])CSC(c2ccc(O)cc2O)=N1.[Na+] [Compound 3, (S)-2-(2,4-dihydroxyphenyl)-4,5-dihydro-4-methyl-4-thiazolecarboxylic acid]
- renal findings in patients (patients): increases in blood urea nitrogen (BUN) and serum creatinine (SCr) levels; also recorded: induced proximal tubule nephrotoxicity

SMILES: C[C@]1(C(=O)[O-])CSC(c2ncc(O)cc2O)=N1.[Na+] [Compound 6, (S)-4,5-dihydro-2-(3,5-dihydroxy-2-pyridinyl)-4-methyl-4-thiazolecarboxylic acid]
- urinary Kim-1 ([1]; rats po 237 µmol/kg b.i.d., until day 5): < 50 ng/kg/24h
- relative percentages of the iron excreted in the feces and urine [feces/urine] (iron overloaded primates [2]): 58/42

SMILES: C[C@]1(C(=O)[O-])CSC(c2ncccc2O)=N1.[Na+] [Compound 1, (S)-4,5-dihydro-2-(3-hydroxy-2-pyridinyl)-4-methyl-4-thiazolecarboxylic acid]
- relative percentages of the iron excreted in the feces and urine [feces/urine] (iron overloaded primates [3]; primates po 150 µmol/kg): 78/22
- nephrotoxicity (rats; rats po once daily 384 µmol/kg/d): severely nephrotoxic
- relative percentages of the iron excreted in the bile and urine [bile/urine] [4]: 93/7
- time at which deferration had returned to baseline [4]: ≤ 12 h

SMILES: COCCOCCOc1cnc(C2=N[C@@](C)(C(=O)[O-])CS2)c(O)c1.[Na+] [Compound 8, (S)-4,5-dihydro-2-[3-hydroxy-5-(3,6-dioxaheptyloxy)-2-pyridinyl]-4-methyl-4-thiazolecarboxylic acid]
- BUN [1]: well within the normal range
- SCr [1]: well within the normal range

SMILES: C[C@]1(C(=O)[O-])CSC(c2ccccc2O)=N1.[Na+] [Compound 2, (S)-4,5-dihydro-2-(2-hydroxyphenyl)-4-methyl-4-thiazolecarboxylic acid]
- gastrointestinal toxicity [5]: serious gastrointestinal (GI) problems
- nephrotoxicity [5]: not overtly nephrotoxic
- relative percentages of the iron excreted in the feces and urine [feces/urine] (iron overloaded primates [3]; primates po 75 µmol/kg): 76/24
- relative percentages of the iron excreted in the bile and urine [bile/urine] [4]: 100/0
- time at which deferration had returned to baseline [4]: ≤ 12 h

SMILES: COCCOCCOCCOc1ccc(C2=N[C@@](C)(C(=O)O)CS2)c(O)c1 [Compound 4, (S)-4,5-dihydro-2-[2-hydroxy-4-(3,6,9-trioxadecyloxy)]-4-methyl-4-thiazolecarboxylic acid]
- nephrotoxicity (rats; rats po once or twice daily): virtually nephrotoxicity-free

SMILES: COCCOCCOc1ccnc(C2=N[C@@](C)(C(=O)[O-])CS2)c1O.[Na+] [Compound 10, (S)-4,5-dihydro-2-[3-hydroxy-4-(3,6-dioxaheptyloxy)-2-pyridinyl]-4-methyl-4-thiazolecarboxylic acid]
- binding of the ligand to plasma [6]: little, if any, binding
- BUN [1]: well within the normal range
- SCr [1]: well within the normal range
- binding of the ligand to plasma [7]: little, if any, binding
